The values that follow come from patent EP0191520A1, “(1-phenylmethyl-5-hydroxy-1H-indazol-3-yl)-oxyacetic acid and salts thereof for use as a medicament, and pharmaceutical compositions containing them” (AZIENDE CHIMICHE RIUNITE ANGELINI FRANCESCO A.C.R.A.F. …, priority 1985, dated 1986).

Usually inhibition stands for the drop in the measured response relative to a control, in per cent.

Structures are written as SMILES. Where two headings read alike, the source gives them in different places.

The target in test [1] is T1, albumin of beef serum (Bos taurus, UniProt P02769).
T1 construct: albumin of beef serum; from tissue; host or cells: beef serum
The test can be described thus: protective effect on protein denaturation from UV rays (method of Silvestrini et al.). The format is biochemical. To be noted: for inhibition at 50 µM: molar conc. .00005; for inhibition at 200 µM: molar conc. .0002. Here is the method: The Compounds of formulas I and II were tested under experimental conditions designed to show the protective effect on protein denaturation from UV rays according to the method of Silvestrini et al. (Int. J. Tiss. Reac. 5, 217-225, 1983) which comprises the measurement of the protective action of the compound under examination on the denaturation of the albumin of beef serum submitted to UV rays for 30 minutes.

Test [2] deals with bilateral senile cataract. The test can be described thus: preliminary tests on man: cataract therapy for three months, oral or topical. Format: in vivo. To be noted: 10 patients. The protocol: Preliminary tests on man confirmed the action of Compound II in cataract therapy.
Two groups of 10 patients afflicted by bilateral senile cataract with cortical or subcapsular or cortinuclear localization, in the initial evolutive stage, without fundus alterations and with a distant visus from 5 to 9 tenths (after correction of any refraction error) were treated for three months with Compound II orally (100 mg tablet; 1 tablet, three times a day) and topically (0.1% collyrium; 1 drop in the conjunctival sac of each eye three times a day) respectively.
The effect of the treatment was evaluated by monitoring the variations in the visus, in the refraction error, and in lenticular opacity (by biomicroscopy with a slit lamp and by ophthalmoscopy).

Setting [3] is: UV rays for 30 minutes, read-out: % INHIBITION MEAN.
Where [4] appears, read: single determinations, UV rays for 30 minutes, read-out: % INHIBITION
The mark [5] stands for this setting: orally, 100 mg tablet three times a day.
Where [6] appears, read: topically, 0.1% collyrium, 1 drop in each eye three times a day.

T1 sequence (P02769 25-607): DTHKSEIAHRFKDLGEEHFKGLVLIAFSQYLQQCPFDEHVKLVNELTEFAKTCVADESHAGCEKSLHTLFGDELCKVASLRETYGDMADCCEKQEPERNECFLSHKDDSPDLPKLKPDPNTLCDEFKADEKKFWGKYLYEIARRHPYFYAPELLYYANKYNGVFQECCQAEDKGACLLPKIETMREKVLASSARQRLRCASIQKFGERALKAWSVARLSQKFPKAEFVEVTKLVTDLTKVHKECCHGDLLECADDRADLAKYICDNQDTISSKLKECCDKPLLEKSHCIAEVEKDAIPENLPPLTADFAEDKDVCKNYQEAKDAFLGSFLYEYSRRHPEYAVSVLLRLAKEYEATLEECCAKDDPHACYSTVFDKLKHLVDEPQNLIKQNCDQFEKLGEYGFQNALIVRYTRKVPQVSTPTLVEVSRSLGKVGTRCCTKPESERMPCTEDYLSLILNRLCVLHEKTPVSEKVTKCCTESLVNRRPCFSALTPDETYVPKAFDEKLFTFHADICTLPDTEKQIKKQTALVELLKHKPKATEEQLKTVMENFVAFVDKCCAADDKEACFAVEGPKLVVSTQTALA

Regarding `O=C(O)COc1nn(Cc2ccccc2)c2ccccc12` [Compound I, bendazac lysinate, reference compound], in test [1] (molar conc. .00025, UV rays for 30 minutes), at 250 µM the inhibition was 12%. Further, in test [1] (molar conc. .0005, UV rays for 30 minutes), testing at 500 µM gave an inhibition of 21%. The compound also showed an inhibition at 1000 µM in test [1] (molar conc. .001, UV rays for 30 minutes) of 42%. The same compound displayed an inhibition at 2000 µM in test [1] (molar conc. .002, UV rays for 30 minutes) of 61%.
Regarding `O=C(O)COc1nn(Cc2ccccc2)c2ccc(O)cc12` [Compound II, (5-hydroxy-1-benzyl)-indazolyl-3-oxyacetic acid], in test [1] (setting [3]), the inhibition at 50 µM came out at 10% and the inhibition at 200 µM came to 92%. In test [1] (setting [4]), the inhibition at 50 µM is 8 to 13% and the inhibition at 200 µM lay in the range of 85 to 100%. This compound yielded an inhibition at 100 µM in test [1] (molar conc. .0001, UV rays for 30 minutes) of 77%. Besides, in test [1] (relative activity versus Compound I in this test), the “times as active as Compound I” value is “at least 10 times”. Moreover, in test [2] (setting [5]), the opacity decreased is given as 6 eyes, the opacity increased amounted to 1 eye, the opacity remained unchanged came out at 13 eyes and the “overall clinical judgement: patients improved” value is 7 patients. Moreover, in test [2] (setting [5]), the “overall clinical judgement: remained unchanged” value amounted to 2 patients and the “overall clinical judgement: worsened slightly” value is “one”. Also, in test [2] (orally, 100 mg tablet three times a day, part of the 7 improved), the “overall clinical judgement: patients improved greatly” value is 4 patients. The “mean visus value increased” value in test [2] (orally, 100 mg tablet three times a day, t = 3.58, P < 0.01) was found to be 16.79%. Also, in test [2] (setting [6]), the opacity decreased is given as 7 eyes, the opacity increased is reported as 2 eyes, the opacity remained unchanged turned out to be 11 eyes and the “overall clinical judgement: patients improved” value is 4 patients. In addition, in test [2] (setting [6]), the “overall clinical judgement: remained unchanged” value amounted to 5 patients and the “overall clinical judgement: worsened” value is on record as “one”. For the same compound, the “mean visus value increased” value in test [2] (topically, 0.1% collyrium, 1 drop in each eye three times a day, t = 2.54, P < 0.05) was 12.78%.
